± gives the standard deviation of the averaged measurements.
Experiments:
Test in all cases: LOEC (log10 uM (lowest observed effect concentration))
[1] = compound: O=C(O)C(F)(F)C(F)(F)C(F)(F)C(F)(F)C(F)(F)C(F)(F)C(F)(F)C(F)(F)C(F)(F)F [Perfluorodecanoic acid]
Method: (§1)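 BioMAP Diversity Plus panel in human primary cell co-cultures, 4 concentrations in duplicate blinded samples. Responses are log10 fold change versus DMSO control, processed with tcpl v2.1.0. A hit is called when responses at any concentration exceed the cutoff (the larger of 3*bmad or log10(1.2)); the lowest observed effect concentration (modl_ga, log10 uM) is reported for hits.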

[2] = compound: C[N+](C)(C)CCCNS(=O)(=O)C(F)(F)C(F)(F)C(F)(F)C(F)(F)C(F)(F)C(F)(F)C(F)(F)C(F)(F)F [Perfluorooctanesulfonamido ammonium iodide]
Method: as §1

[3] = compound: CCN(CCO)S(=O)(=O)C(F)(F)C(F)(F)C(F)(F)C(F)(F)C(F)(F)C(F)(F)C(F)(F)C(F)(F)F [N-Ethyl-N-(2-hydroxyethyl)perfluorooctanesulfonamide]
Method: as §1

[4] = compound: OCCCC(F)(F)C(F)(F)C(F)(F)C(F)(F)C(F)(F)C(F)(F)C(F)(F)F [7:3 Fluorotelomer alcohol]
Method: as §1

[5] = compound: OCCC(F)(F)C(F)(F)C(F)(F)C(F)(F)C(F)(F)C(F)(F)F [6:2 Fluorotelomer alcohol]
Method: as §1

Test System | LOEC (log10 uM) [1] | LOEC (log10 uM) [2] | LOEC (log10 uM) [3] | LOEC (log10 uM) [4] | LOEC (log10 uM) [5]
IMphg CD69 down | 1.78 | 1.3 | 1.3 |  | 
BE3C ITAC down | 1.3 |  | 1.78 | 1.78 | 
BE3C MMP9 down | 1.3 |  | 1.54 ± 0.34 | 1.78 | 
KF3CT SRB down | 1.78 | 1.78 |  | 1.54 ± 0.34 | 
BE3C uPAR down | 1.3 |  | 1.78 | 1.78 | 
CASM3C VCAM1 down | 1.78 |  | 1.07 ± 0.32 | 1.3 | 
LPS CD69 down | 1.78 |  | 0.845 | 1.78 | 
BE3C PAI1 down | 1.3 |  | 1.78 | 1.78 | 
3C IL8 down | 1.78 | 1.78 |  | 1.78 | 
LPS VCAM1 down | 1.78 | 1.78 | 1.78 | 1.54 ± 0.34 | 
hDFCGF TIMP2 up |  | 1.07 ± 0.32 | 0.845 |  | 
SAg MCP1 down | 1.78 |  | 1.54 ± 0.34 | 1.54 ± 0.34 | 
hDFCGF MCSF up |  | 1.78 |  |  | 
MyoF bFGF down | 1.78 | 1.78 |  | 1.78 | 
BF4T Keratin818 down | 1.3 | 1.78 |  | 1.78 | 
3C MIG down | 1.78 |  |  | 1.78 | 1.78
LPS PGE2 down | 1.78 | 1.3 |  |  | 
BE3C SRB down | 1.3 |  | 1.78 | 1.78 | 
SAg CD40 down | 1.78 | 1.78 | 1.78 | 1.78 | 
BT sIgG down |  | 1.78 | 1.3 | 1.54 ± 0.34 | 
4H Eotaxin3 down | 1.78 | 1.78 | 1.54 ± 0.34 | 1.54 ± 0.34 | 
LPS IL1a down | 1.78 | 1.54 ± 0.34 | 1.3 |  | 
LPS TNFa down | 1.78 | 1.3 |  | 1.54 ± 0.34 | 
BT PBMCCytotoxicity down |  |  |  | 1.3 | 1.78

Test System | LOEC (log10 uM) [1] | LOEC (log10 uM) [2] | LOEC (log10 uM) [3] | LOEC (log10 uM) [4] | LOEC (log10 uM) [5]
IMphg SRB.Mphg down | 1.78 | 1.04 ± 1 |  |  | 
hDFCGF TIMP2 down | 1.3 |  |  | 1.3 | 1.78
KF3CT IP10 down | 1.3 | 1.78 | 1.3 | 1.54 ± 0.34 | 
IMphg MIP1a down | 1.78 | 1.78 |  |  | 
BE3C uPA down | 1.3 |  | 1.78 | 1.78 | 
IMphg VCAM1 down | 1.78 | 1.54 ± 0.34 |  |  | 
BF4T MMP9 down | 1.3 | 1.78 |  | 1.78 | 
BF4T MMP3 up |  | 1.78 | 1.78 |  | 
hDFCGF ICAM1 down | 1.78 |  |  | 1.3 | 1.78
3C uPAR down | 1.78 |  |  | 1.78 | 1.78
3C ICAM1 down | 1.78 |  |  | 1.78 | 1.78
IMphg IL8 down |  | 1.54 ± 0.34 |  |  | 
BT xIL2 down |  | 1.78 | 1.3 | 1.3 | 
SAg CD69 down | 1.78 |  | 1.54 ± 0.34 | 1.78 | 
hDFCGF MIG down | 1.07 ± 0.32 |  | 1.3 | 1.3 | 1.78
BE3C MIG down | 1.3 |  | 1.78 | 1.78 | 
BE3C tPA down | 1.3 | 1.78 |  | 1.78 | 
BE3C IL8 down | 1.3 | 1.54 ± 0.34 | 1.3 | 1.78 | 
LPS SRB down | 1.78 | 1.78 | 1.54 ± 0.34 | 1.78 | 
hDFCGF TIMP1 down | 1.78 |  |  | 1.3 | 1.78
BE3C IL1a down | 1.3 |  | 1.54 ± 0.34 | 1.78 | 
4H SRB down | 1.78 |  | 1.54 ± 0.34 | 1.78 | 
LPS MCP1 down | 1.78 |  | 1.78 | 1.54 ± 0.34 | 
IMphg SRB down | 1.78 | 1.78 | 1.78 | 1.78 | 

Test System | LOEC (log10 uM) [1] | LOEC (log10 uM) [2] | LOEC (log10 uM) [3] | LOEC (log10 uM) [4] | LOEC (log10 uM) [5]
KF3CT uPA down | 1.78 |  | 1.78 | 1.54 ± 0.34 | 
SAg CD38 down | 1.78 |  | 1.3 | 1.54 ± 0.34 | 
CASM3C MIG down |  |  | 1.3 | 1.3 | 
BT xIL17A down |  | 1.78 | 1.3 | 1.3 | 
hDFCGF CollagenIII down | 1.78 | 1.07 ± 0.32 |  | 1.3 | 
4H VEGFRII up |  | 1.78 |  |  | 
3C TissueFactor up |  | 1.78 |  |  | 
4H Pselectin down | 1.78 | 1.78 | 1.54 ± 0.34 | 1.78 | 
BF4T IL1a down | 1.54 ± 0.34 | 1.78 |  | 1.78 | 
KF3CT MMP9 down | 1.07 ± 0.32 | 1.78 | 1.54 ± 0.34 | 1.3 | 
MyoF Decorin up |  | 1.07 ± 0.32 |  |  | 
CASM3C HLADR down |  |  | 1.54 ± 0.34 | 1.54 ± 0.34 | 
CASM3C SRB down |  |  | 1.3 | 1.54 ± 0.34 | 
LPS MCSF down | 1.78 | 1.78 |  | 1.78 | 
KF3CT MIG down | 1.78 |  | 1.78 | 1.54 ± 0.34 | 
LPS IL8 down | 1.78 | 1.3 |  | 1.78 | 
KF3CT IL1a down | 1.78 |  | 1.3 | 1.54 ± 0.34 | 
KF3CT PAI1 down | 1.3 | 1.78 | 0.845 | 1.3 | 
3C TissueFactor down | 1.78 |  |  | 1.54 ± 0.34 | 1.78
SAg SRB down | 1.78 | 1.78 | 1.3 | 1.78 | 
hDFCGF CollagenI down |  |  |  | 1.3 | 1.78
CASM3C LDLR up |  | 1.54 ± 0.34 |  |  | 

Reference: the supplement of paper PMC10331698
